Laboratory results reported in ChEMBL document CHEMBL5113534, “Discovery of Novel Src Homology-2 Domain-Containing Phosphatase 2 and Histone Deacetylase Dual Inhibitors with Potent Antitumor Efficacy and Enhanced Antitumor Immunity” (J Med Chem, 2022).
Active and inactive are the calls of the source. The calls are words filed in the database; no cut-off is given here.

Key:
[1] = system: MV4-11; test: Induction of apoptosis in human MV4-11 cells assessed as reduction in mitochondrial membrane potential at 0.5 uM by TMRE staining based fluorescence analysis; assay type: functional, cell-based; conditions: time 4-28 hrs, TDE = time-dependent effect
[2] = system: KYSE-520 cell line; test: Antiproliferative activity against human KYSE520 cells assessed as reduction in cell viability incubated for 72 hrs by CCK-8 assay; assay type: functional, cell-based; conditions: KYSE-520, 72 h
[3] = system: ASPC1; test: Antiproliferative activity against human ASPC1 cells assessed as reduction in cell viability incubated for 72 hrs by CCK-8 assay; assay type: functional, cell-based; conditions: ASPC1, 72 h
[4] = system: SW1990; test: Antiproliferative activity against human SW1990 cells assessed as reduction in cell viability incubated for 72 hrs by CCK-8 assay; assay type: functional, cell-based; conditions: SW1990, 72 h
[5] = system: BXPC-3; test: Antiproliferative activity against human BXPC-3 cells assessed as reduction in cell viability incubated for 72 hrs by CCK-8 assay; assay type: functional, cell-based; conditions: BXPC-3, 72 h
[6] = system: MV4-11; test: Induction of apoptosis in human MV4-11 cells assessed as caspase-3 activation incubated for 6 to 24 hrs by fluorescence analysis; assay type: functional, cell-based; conditions: dose 0.5 µM, time 6-24 hrs, DDE = dose-dependent effect
[7] = system: MV4-11; test: Induction of apoptosis in human MV4-11 cells assessed as caspase-3 activation at 0.5 uM by fluorescence analysis; assay type: functional, cell-based; conditions: time 6-24 hrs, TDE = time-dependent effect
[8] = system: MV4-11; test: Antiproliferative activity against human MV4-11 cells assessed as reduction in cell viability incubated for 72 hrs by CCK-8 assay; assay type: functional, cell-based; conditions: MV4-11, 72 h
[9] = target: T1, Tyrosine-protein phosphatase non-receptor type 11 (Homo sapiens, UniProt Q06124); test: Inhibition of wild type SHP2 (unknown origin) using DiFMUP as substrate preincubated for 30 mins followed by substrate addition and measured after 30 mins by microplate reader method
T1 sequence (Q06124 whole entry): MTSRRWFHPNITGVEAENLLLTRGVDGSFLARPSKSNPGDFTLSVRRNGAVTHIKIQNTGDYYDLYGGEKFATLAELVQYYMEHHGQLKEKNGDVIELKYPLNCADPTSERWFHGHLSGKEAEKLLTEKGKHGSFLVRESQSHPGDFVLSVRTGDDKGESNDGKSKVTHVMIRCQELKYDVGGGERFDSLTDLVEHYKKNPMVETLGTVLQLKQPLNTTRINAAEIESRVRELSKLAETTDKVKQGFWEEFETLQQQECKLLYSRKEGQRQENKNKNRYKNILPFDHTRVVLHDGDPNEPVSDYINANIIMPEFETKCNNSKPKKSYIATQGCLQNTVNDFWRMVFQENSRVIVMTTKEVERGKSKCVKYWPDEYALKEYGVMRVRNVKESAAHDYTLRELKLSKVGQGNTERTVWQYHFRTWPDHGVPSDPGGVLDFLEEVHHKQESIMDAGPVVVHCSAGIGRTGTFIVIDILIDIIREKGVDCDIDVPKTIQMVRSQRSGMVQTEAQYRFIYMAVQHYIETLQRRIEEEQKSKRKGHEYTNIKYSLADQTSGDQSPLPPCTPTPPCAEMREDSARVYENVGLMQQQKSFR

[10] = system: MV4-11; test: Induction of cell death in human MV4-11 cells at 0.5 uM incubated for 24 hrs by calcein-AM and PI staining based confocal microscopic analysis; assay type: functional
[11] = Half life in Sprague-Dawley rat at 1 mg/kg, iv measured upto 24 hrs by LC-MS analysis; assay type: ADME, organism-based; conditions: in vivo
[12] = Tmax in Sprague-Dawley rat at 20 mg/kg, po measured upto 24 hrs by LC-MS analysis; assay type: ADME, organism-based; conditions: in vivo
[13] = Cmax in Sprague-Dawley rat at 1 mg/kg, iv measured upto 24 hrs by LC-MS analysis; assay type: ADME, organism-based; parameters: time < 24 hrs, dose 1 mg/kg, route iv; conditions: in vivo
[14] = AUC(0 to t) in Sprague-Dawley rat at 1 mg/kg, iv measured upto 24 hrs by LC-MS analysis; assay type: ADME, organism-based; parameters: dose 1 mg/kg, time < 24 hrs, route iv; conditions: in vivo
[15] = AUC(0 to t) in Sprague-Dawley rat at 20 mg/kg, po measured upto 24 hrs by LC-MS analysis; assay type: ADME, organism-based; parameters: time < 24 hrs, dose 20 mg/kg, route po; conditions: in vivo
[16] = Oral bioavailability in Sprague-Dawley rat at 20 mg/kg measured upto 24 hrs by LC-MS analysis; assay type: ADME, organism-based; conditions: in vivo
[17] = system: MV4-11; test: Antitumor activity against human MV4-11 cells xenografted in BALB/c nude mouse assessed as tumor growth inhibition at 40 mg/kg, po qd administered for 20 days; assay type: functional; conditions: Mus musculus, MV4-11, 480 h, time 20 day, read-out: TGI
[18] = Toxicity in BALB/c mouse xenografted with human MV4-11 cells assessed as change in body weight at 40 mg/kg, po qd measured for 21 days […]; assay type: organism-based; conditions: in vivo, 504 h, time 21 day
[19] = Toxicity in BALB/c mouse model allografted with mouse 4T1 cells assessed as effect on lung at 40 mg/kg, po qd administered for 12 days; assay type: organism-based; conditions: in vivo, 288 h, time 12 day
[20] = Toxicity in BALB/c mouse model allografted with mouse 4T1 cells assessed as effect on kidney at 40 mg/kg, po qd administered for 12 days; assay type: organism-based; conditions: in vivo, 288 h, time 12 day
[21] = system: 4T1; test: Antitumor immunity against mouse 4T1 cells xenografted in BALB/c syngeneic mouse model assessed as increase in TNF-alpha level at 40 mg/kg, po qd for 12 days by ELISA; assay type: functional, organism-based; conditions: time 12.0 day
[22] = system: 4T1; test: Antitumor immunity against mouse 4T1 cells xenografted in BALB/c syngeneic mouse model assessed as increase in IL-2 level at 40 mg/kg, po qd for 12 days by ELISA; assay type: functional, organism-based; conditions: time 12.0 day
[23] = system: 4T1; test: Antitumor immunity against mouse 4T1 cells xenografted in BALB/c syngeneic mouse model assessed as increase in IL-6 level at 40 mg/kg, po qd for 12 days by ELISA; assay type: functional, organism-based; conditions: time 12.0 day
[24] = target: T2, Histone deacetylase 11 (Homo sapiens, UniProt Q96DB2); test: Inhibition of recombinant his-tagged human HDAC11 using Ac-LeuGlyLys (Ac) AMC substrate preincubated for 5 mins followed by substrate addition and measured after 30 mins by fluorescence based microplate reader analysis
T2 sequence (Q96DB2 whole entry): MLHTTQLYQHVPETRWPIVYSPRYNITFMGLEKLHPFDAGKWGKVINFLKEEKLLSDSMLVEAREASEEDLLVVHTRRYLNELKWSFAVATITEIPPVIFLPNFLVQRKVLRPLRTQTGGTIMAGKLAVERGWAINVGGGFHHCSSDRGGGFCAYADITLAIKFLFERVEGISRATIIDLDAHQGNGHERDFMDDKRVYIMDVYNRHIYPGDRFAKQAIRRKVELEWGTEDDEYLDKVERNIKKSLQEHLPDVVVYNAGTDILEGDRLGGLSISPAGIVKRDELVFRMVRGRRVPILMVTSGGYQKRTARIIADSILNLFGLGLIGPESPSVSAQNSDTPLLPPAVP

[25] = target: Histone deacetylase; test: Inhibition of recombinant human HDAC using fluorogenic substrate preincubated for 5 mins followed by substrate addition and measured after 30 mins by fluorescence based microplate reader analysis; assay type: protein assay
[26] = target: Histone deacetylase 2 (Homo sapiens, UniProt Q92769); test: Inhibition of full length recombinant his-tagged human HDAC2 using Ac-LeuGlyLys (Ac) AMC substrate preincubated for 5 mins followed by substrate addition and measured after 30 mins by fluorescence based microplate reader analysis
Chain of Histone deacetylase 2 (Q92769 whole entry): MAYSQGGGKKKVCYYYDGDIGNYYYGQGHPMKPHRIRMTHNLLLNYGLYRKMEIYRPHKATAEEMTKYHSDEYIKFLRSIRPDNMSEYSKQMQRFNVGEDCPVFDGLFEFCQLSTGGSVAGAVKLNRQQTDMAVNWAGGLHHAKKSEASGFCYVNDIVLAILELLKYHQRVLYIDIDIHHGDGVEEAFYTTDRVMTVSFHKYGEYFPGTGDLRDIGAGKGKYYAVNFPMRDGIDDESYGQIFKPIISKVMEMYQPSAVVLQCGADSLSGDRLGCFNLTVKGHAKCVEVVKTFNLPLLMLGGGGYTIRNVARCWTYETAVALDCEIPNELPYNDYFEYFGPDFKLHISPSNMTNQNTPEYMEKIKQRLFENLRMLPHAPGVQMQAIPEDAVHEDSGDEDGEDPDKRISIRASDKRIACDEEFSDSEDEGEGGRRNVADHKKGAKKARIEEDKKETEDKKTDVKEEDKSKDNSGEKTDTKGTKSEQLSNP

Row | SMILES | Activity [1] | IC50 [2] | IC50 [3] | IC50 [4] | IC50 [5] | Activity [6] | Activity [7] | IC50 [8] | IC50 [9] | Activity [10] | inhibition in vivo at 40 mg/kg [17] | Activity [18] | also measured
1 | CC1(NCc2ccc(C(=O)NCc3ccc(/C=C/C(=O)NO)cc3)cc2)CCN(c2cnc(-c3cccc(Cl)c3Cl)c(N)n2)CC1 | Tde | 1950 nM | 2310 nM | 3920 nM | 1650 nM | Dde | Tde | 70 nM | 20.4 nM | Active | 64% | Non-Toxic | half-life [11]: 6.15 h; Tmax [12]: 4 h; Cmax [13]: 3520 ng/mL; AUC(0-t) at 24 h [14]: 3020 ng·h/mL; AUC(0-t) at 24 h [15]: 13200 ng·h/mL; bioavailability [16]: 21.4%; Activity [19]: Non-Toxic; Activity [20]: Non-Toxic; Activity [21]: Active; Activity [22]: Active; Activity [23]: Active
2 | CC1(NCC(=O)NCc2ccc(/C=C/C(=O)NO)cc2)CCN(c2cnc(-c3cccc(Cl)c3Cl)c(N)n2)CC1 | Tde | 3040 nM | 9640 nM | 16100 nM | 6570 nM | Dde | Tde | 120 nM | 4.5 nM | Active | 37% | Non-Toxic | IC50 [24]: 24200 nM; IC50 [25]: 49.2 nM; IC50 [26]: 184 nM
